According to ChEMBL document CHEMBL1132351, “Synthesis, in vitro pharmacology, and molecular modeling of very potent tacrine-huperzine A hybrids as acetylcholinesterase inhibitors of potential interest for the treatment of Alzheimer's disease” (J Med Chem, 1999):
Several values for one entry are separate records, joined by “and”; a condition that tells them apart may be missing. Equal entries are not always repeated.

What was measured:
Acetylcholinesterase = molecular target: T1, Acetylcholinesterase (Bos taurus, UniProt P23795)
T1 sequence (P23795 whole entry): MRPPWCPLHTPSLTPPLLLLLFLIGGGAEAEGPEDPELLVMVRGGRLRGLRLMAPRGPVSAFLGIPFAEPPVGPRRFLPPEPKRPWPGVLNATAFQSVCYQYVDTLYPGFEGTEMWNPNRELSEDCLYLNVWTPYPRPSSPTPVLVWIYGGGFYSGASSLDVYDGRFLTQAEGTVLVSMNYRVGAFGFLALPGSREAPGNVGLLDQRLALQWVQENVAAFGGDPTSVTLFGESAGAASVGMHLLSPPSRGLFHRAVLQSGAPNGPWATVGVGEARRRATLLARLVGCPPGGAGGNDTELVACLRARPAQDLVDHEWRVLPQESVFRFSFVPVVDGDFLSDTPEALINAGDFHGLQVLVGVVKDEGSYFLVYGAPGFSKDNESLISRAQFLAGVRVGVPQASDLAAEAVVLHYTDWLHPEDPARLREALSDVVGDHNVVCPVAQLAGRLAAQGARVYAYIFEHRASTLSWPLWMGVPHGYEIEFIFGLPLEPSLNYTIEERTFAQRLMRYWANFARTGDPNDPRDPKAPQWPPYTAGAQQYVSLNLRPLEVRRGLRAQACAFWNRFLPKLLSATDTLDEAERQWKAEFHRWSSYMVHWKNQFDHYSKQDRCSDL
Description: Inhibition of acetylcholinesterase (AChE)activity in bovine erythrocytes

Cholinesterase = Cholinesterase (Homo sapiens, UniProt P06276)
Description: Inhibition of butyrylcholinesterase (BChE) activity in human serum

[1] = Drug concentration that reaches 50% of antagonism index (AI); No reversion at 10 uM concentration.; assay type: functional
[2] = Drug concentration that reaches 50% of antagonism index (AI); No reversion at 10 uM concentration; assay type: functional

Chain of Cholinesterase (P06276 whole entry): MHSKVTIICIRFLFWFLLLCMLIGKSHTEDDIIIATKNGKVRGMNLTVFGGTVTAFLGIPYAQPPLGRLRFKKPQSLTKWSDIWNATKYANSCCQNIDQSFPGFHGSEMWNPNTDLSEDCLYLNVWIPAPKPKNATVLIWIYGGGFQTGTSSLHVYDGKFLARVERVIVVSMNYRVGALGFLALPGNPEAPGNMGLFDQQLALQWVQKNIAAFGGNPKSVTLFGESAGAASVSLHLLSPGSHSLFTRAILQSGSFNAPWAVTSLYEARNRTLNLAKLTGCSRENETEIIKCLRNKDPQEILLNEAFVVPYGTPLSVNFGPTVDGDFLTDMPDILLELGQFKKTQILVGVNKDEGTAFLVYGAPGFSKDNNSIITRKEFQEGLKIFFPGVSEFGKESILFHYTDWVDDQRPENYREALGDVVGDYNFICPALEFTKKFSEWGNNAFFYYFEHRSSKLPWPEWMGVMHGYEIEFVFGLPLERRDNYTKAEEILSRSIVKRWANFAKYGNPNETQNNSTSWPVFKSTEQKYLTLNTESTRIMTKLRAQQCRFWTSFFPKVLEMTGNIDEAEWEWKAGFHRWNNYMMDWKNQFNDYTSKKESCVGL

Structure (SMILES)	IC50 (Acetylcholinesterase) [nM]	IC50 (Cholinesterase)	AI50 [1]	AI50 [2]
CC(C)C1=CC2Cc3nc4ccccc4c(N)c3C(C1)C2 (racemic)	103			
CCC1=CC2Cc3nc4ccccc4c(N)c3C(C1)C2 (single isomer, unassigned; (-))	27.4	63.3 nM		
CC1=C[C@@H]2Cc3nc4cc(F)ccc4c(N)c3[C@H](C1)C2 (racemic)	8.5	197 nM		
C/C=C1\[C@H]2C=C(C)C[C@]1(N)c1ccc(=O)[nH]c1C2 [HUPERZINE A]		> 100000 nM		
CC1=CC2Cc3nc4cc(C)ccc4c(N)c3C(C1)C2 (racemic)		449 nM		
CCC1=CC2Cc3nc4ccccc4c(N)c3C(C1)C2 (single isomer, unassigned; (+))	888	109 nM		
CC1=CC2Cc3nc4ccccc4c(N)c3C(C1)C2 (single isomer, unassigned; (+))	329	316 nM		
CCC1=CC2Cc3nc4ccccc4c(N)c3C(C1)C2 (racemic)	38.5	79.3 nM		
CC(C)(C)C1=CC2Cc3nc4ccccc4c(N)c3C(C1)C2 (racemic)	267			
CC1=CC2Cc3nc4ccccc4c(N)c3C(C1)C2 (racemic)	65	126 nM		
CCC1=CC2Cc3nc4cc(C)ccc4c(N)c3C(C1)C2 (racemic)	12	208 nM		
C=CCC1=CC2Cc3nc4ccccc4c(N)c3C(C1)C2 (racemic)	150		No reversion at 10 uM concentration	
CC1=CC2Cc3nc4ccccc4c(N)c3C(C1)C2 (single isomer, unassigned; (-))		89 nM		
Nc1c2c(nc3ccccc13)CC1C=C(c3ccccc3)CC2C1 (racemic)	126		No reversion	
CCC1=CC2Cc3nc4cc(C)ccc4c(N)c3C(C1)C2 (centres undefined) [listing 1 of 2 here]				No reversion
CCC1=CC2Cc3nc4cc(C)ccc4c(N)c3C(C1)C2 (centres undefined) [listing 2 of 2 here]		115 nM and 347 nM		
CC1=CC2Cc3nc4cccc(F)c4c(N)c3C(C1)C2 (racemic)	31.4	543 nM		
CCC1=CC2Cc3nc4cccc(C)c4c(N)c3C(C1)C2 (racemic)	29.8	512 nM		
